From ChEMBL document CHEMBL4831531, “Mangostanin Derivatives as Novel and Orally Active Phosphodiesterase 4 Inhibitors for the Treatment of Idiopathic Pulmonary Fibrosis with Improved Safety” (J Med Chem, 2021)
pIC50: −log10 of the molar value. Converted amounts (≈) assume the structure as drawn. The source made the active and inactive calls. No cut-off for these calls is given here.

What was measured:
[1] = biological target: 3',5'-cyclic-AMP phosphodiesterase 4D (Homo sapiens, UniProt Q08499); assay: Inhibition of PDE4D2 (86-413) (unknown origin) expressed in Escherichia coli BL21 assessed as using [3H]-cAMP as substrate measured for 15 mins by liquid scintillation counting analysis
Sequence of 3',5'-cyclic-AMP phosphodiesterase 4D (Q08499 whole entry): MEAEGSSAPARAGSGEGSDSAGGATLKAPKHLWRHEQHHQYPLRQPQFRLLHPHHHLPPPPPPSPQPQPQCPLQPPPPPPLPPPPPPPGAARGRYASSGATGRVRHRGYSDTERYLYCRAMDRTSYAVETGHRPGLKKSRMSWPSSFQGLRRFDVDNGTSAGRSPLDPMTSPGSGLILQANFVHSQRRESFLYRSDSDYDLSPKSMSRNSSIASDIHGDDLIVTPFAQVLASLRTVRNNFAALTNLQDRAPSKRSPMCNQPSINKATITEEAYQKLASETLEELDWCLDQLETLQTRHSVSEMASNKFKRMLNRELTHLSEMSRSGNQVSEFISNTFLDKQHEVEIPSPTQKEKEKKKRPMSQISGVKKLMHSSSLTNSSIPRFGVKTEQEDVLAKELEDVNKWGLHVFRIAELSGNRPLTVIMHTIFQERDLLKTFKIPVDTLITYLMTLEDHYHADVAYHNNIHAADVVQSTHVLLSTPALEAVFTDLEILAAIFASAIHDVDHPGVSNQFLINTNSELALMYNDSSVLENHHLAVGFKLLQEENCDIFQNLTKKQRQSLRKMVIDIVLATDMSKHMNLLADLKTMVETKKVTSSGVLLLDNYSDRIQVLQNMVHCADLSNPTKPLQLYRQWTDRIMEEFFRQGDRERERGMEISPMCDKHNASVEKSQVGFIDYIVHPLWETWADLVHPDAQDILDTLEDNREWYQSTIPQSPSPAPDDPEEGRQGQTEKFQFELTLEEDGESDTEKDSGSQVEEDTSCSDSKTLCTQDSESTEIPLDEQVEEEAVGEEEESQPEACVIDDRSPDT

[2] = biological target: High affinity cAMP-specific and IBMX-insensitive 3',5'-cyclic phosphodiesterase 8A (Homo sapiens, UniProt O60658); assay: Inhibition of PDE8A1 (480-828) (unknown origin) expressed in Escherichia coli BL21 assessed as using [3H]-cAMP as substrate measured for 15 mins by liquid scintillation counting analysis
[3] = biological target: Voltage-gated inwardly rectifying potassium channel KCNH2 (Homo sapiens, UniProt Q12809); assay: Inhibition of human ERG
[4] = AUC (0 to t) in Sprague-Dawley rat at 5 mg/kg, po; type: ADME, organism-based; parameters: dose 5 mg/kg; conditions: in vivo
[5] = biological target: High affinity cGMP-specific 3',5'-cyclic phosphodiesterase 9A (Homo sapiens, UniProt O76083); assay: Inhibition of PDE9A2 (181-506) (unknown origin) expressed in Escherichia coli BL21 assessed as using […] as substrate measured for 15 mins by liquid scintillation counting analysis
[6] = Metabolic stability in rat liver microsomes assessed as half life; type: ADME, Microsome
A549 [7] = assay: Anti-idiopathic pulmonary fibrotic activity in human A549 cells assessed as reduction in TGF-beta-induced fibronectin expression measured after 48 hrs by Western blot analysis; type: functional, cell-based; conditions: dose 10-20 µM
[8] = Solubility of the compound in deionized water; type: physicochemical
[9] = Half life in Sprague-Dawley rat at 5 mg/kg, po; type: ADME, organism-based; conditions: in vivo
Cytochrome P450 2C9 = Cytochrome P450 2C9 (Homo sapiens, UniProt P11712); assay: Inhibition of human hepatic CYP2C9; type: ADME, tissue-based, Liver
Sequence of Cytochrome P450 2C9 (P11712 whole entry): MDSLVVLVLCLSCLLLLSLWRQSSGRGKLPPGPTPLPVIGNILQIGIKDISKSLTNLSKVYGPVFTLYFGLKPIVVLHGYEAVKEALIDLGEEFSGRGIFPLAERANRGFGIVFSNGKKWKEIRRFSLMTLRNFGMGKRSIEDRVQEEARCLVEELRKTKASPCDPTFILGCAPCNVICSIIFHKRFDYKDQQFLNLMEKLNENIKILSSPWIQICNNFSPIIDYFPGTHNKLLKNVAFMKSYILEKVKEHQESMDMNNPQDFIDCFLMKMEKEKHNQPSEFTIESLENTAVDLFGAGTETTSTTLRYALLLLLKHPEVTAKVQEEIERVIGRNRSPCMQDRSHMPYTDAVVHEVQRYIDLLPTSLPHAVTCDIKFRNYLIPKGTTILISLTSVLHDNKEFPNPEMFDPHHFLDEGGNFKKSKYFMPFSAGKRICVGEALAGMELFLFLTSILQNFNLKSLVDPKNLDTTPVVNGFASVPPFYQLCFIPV

Rattus norvegicus [10] = assay: Anti-idiopathic pulmonary fibrotic activity in bleomycin-induced Sprague-Dawley rat model assessed as reversal of enhanced pause at 10 mg/kg, po treated for 28 consecutive days relative to control; type: functional, organism-based
Rattus norvegicus [11] = assay: Anti-idiopathic pulmonary fibrotic activity in bleomycin-induced Sprague-Dawley rat model assessed as prevention of structural damage of lungs at 10 mg/kg, po treated for 28 consecutive days by Hematoxylin and eosin staining based assay relative to control; type: functional, organism-based
[12] = AUC (0 to t) in Sprague-Dawley rat at 10 mg/kg, po; type: ADME, organism-based; parameters: dose 10 mg/kg; conditions: in vivo
Cytochrome P450 1A2 = biological target: T1, Cytochrome P450 1A2 (Homo sapiens, UniProt P05177); assay: Inhibition of human hepatic CYP1A2; type: ADME, tissue-based, Liver
T1 sequence (P05177 whole entry): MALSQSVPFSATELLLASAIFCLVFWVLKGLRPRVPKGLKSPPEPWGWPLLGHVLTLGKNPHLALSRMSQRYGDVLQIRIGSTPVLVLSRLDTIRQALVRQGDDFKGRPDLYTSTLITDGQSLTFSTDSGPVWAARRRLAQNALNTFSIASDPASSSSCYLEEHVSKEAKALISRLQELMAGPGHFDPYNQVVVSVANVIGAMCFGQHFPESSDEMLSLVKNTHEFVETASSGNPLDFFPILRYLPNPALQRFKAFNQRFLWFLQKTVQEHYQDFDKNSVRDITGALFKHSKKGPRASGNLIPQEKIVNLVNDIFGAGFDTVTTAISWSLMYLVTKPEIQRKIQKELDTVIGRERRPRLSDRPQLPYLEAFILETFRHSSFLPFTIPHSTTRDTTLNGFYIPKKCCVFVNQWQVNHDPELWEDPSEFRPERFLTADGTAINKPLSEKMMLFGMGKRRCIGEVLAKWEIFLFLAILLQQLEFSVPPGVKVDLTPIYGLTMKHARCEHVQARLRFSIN

A549 [13] = assay: Anti-idiopathic pulmonary fibrotic activity in human A549 cells assessed as reduction in TGF-beta-induced vimentin expression measured after 48 hrs by Western blot analysis; type: functional, cell-based; conditions: dose 10-20 µM
Cytochrome P450 2D6 = Cytochrome P450 2D6 (Homo sapiens, UniProt P10635); assay: Inhibition of human hepatic CYP2D6; type: ADME, tissue-based, Liver
Sequence of Cytochrome P450 2D6 (P10635 whole entry): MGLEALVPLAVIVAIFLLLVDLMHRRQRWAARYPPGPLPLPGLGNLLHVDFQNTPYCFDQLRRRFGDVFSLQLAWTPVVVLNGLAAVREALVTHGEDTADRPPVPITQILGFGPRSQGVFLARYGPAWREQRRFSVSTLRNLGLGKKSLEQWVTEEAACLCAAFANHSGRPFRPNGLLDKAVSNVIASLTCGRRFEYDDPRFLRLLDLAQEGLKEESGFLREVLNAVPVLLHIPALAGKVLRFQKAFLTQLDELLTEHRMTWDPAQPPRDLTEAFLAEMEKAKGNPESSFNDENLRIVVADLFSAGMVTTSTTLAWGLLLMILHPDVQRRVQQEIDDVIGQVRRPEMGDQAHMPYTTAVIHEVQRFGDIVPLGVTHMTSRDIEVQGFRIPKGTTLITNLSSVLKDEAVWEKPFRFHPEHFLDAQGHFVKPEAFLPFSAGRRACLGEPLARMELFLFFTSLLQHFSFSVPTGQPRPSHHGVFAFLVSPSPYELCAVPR

[14] = Cmax in Sprague-Dawley rat at 5 mg/kg, po; type: ADME, organism-based; parameters: route oral, dose 5 mg/kg; conditions: in vivo
Rattus norvegicus [15] = assay: Anti-inflammatory activity in bleomycin-induced idiopathic pulmonary fibrotic activity Sprague-Dawley rat model assessed as decrease in NO production in lungs at 10 mg/kg, po treated for 28 consecutive days; type: functional, organism-based
[16] = biological target: 3',5'-cyclic-AMP phosphodiesterase 4B (Homo sapiens, UniProt Q07343); assay: Inhibition of PDE4B2 (152-487) (unknown origin) expressed in Escherichia coli BL21 assessed as using [3H]-cAMP as substrate measured for 15 mins by liquid scintillation counting analysis
Sequence of 3',5'-cyclic-AMP phosphodiesterase 4B (Q07343 whole entry): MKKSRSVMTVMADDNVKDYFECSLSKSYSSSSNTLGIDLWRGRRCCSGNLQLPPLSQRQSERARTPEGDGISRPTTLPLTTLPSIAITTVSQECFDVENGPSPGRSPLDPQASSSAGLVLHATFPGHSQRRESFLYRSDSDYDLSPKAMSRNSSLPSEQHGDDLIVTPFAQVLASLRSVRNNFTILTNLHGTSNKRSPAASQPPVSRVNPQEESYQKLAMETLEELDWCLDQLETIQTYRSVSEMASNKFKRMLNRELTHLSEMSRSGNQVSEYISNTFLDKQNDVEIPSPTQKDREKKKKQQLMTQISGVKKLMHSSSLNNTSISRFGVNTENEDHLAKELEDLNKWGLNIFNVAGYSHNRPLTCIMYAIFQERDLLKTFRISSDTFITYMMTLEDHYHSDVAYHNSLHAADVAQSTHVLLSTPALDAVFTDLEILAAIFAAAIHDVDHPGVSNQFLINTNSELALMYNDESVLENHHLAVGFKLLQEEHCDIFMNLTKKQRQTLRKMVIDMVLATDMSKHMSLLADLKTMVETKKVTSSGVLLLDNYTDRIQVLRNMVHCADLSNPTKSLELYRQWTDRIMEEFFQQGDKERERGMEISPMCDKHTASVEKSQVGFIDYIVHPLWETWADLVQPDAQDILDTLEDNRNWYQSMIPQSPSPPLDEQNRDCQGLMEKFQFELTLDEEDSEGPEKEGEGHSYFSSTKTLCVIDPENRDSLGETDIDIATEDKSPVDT

Cytochrome P450 3A4 = Cytochrome P450 3A4 (Homo sapiens, UniProt P08684); assay: Inhibition of human hepatic CYP3A4; type: ADME, tissue-based, Liver
Sequence of Cytochrome P450 3A4 (P08684 whole entry): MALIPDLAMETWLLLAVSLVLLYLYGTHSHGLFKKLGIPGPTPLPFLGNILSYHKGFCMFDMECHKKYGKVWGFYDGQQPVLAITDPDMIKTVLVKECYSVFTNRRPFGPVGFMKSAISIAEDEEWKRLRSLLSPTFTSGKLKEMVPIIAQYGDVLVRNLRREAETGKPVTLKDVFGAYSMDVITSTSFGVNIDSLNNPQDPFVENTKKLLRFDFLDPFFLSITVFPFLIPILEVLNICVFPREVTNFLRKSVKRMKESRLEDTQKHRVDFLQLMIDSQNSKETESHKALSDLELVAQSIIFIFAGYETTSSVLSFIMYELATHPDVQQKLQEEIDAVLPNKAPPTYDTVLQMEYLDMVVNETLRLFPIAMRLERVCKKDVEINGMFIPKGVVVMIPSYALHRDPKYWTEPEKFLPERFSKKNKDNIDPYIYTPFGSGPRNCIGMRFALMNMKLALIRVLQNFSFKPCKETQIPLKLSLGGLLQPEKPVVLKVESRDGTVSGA

Rattus norvegicus [17] = assay: Anti-idiopathic pulmonary fibrotic activity in bleomycin-induced Sprague-Dawley rat model assessed as reversal of respiratory rate at 10 mg/kg, po treated for 28 consecutive days relative to control; type: functional, organism-based
[18] = AUC (0 to infinity) in Sprague-Dawley rat at 5 mg/kg, po; type: ADME, organism-based; parameters: route oral, time infinity, dose 5 mg/kg; conditions: in vivo
[19] = biological target: cGMP-specific 3',5'-cyclic phosphodiesterase (Homo sapiens, UniProt O76074); assay: Inhibition of PDE5A1 (535-860) (unknown origin) expressed in Escherichia coli BL21 assessed as using […] as substrate measured for 15 mins by liquid scintillation counting analysis
[20] = Toxicity in mouse assessed as change in body weight at 1.5 g/Kg, po; conditions: in vivo, 1500 mg/kg
[21] = Cmax in Sprague-Dawley rat at 10 mg/kg, po; type: ADME, organism-based; parameters: route oral, dose 10 mg/kg; conditions: in vivo
[22] = Toxicity in dog assessed as emesis at 10 mg/kg, po; type: organism-based, Canis lupus familiaris; conditions: in vivo
[23] = biological target: Dual specificity calcium/calmodulin-dependent 3',5'-cyclic nucleotide phosphodiesterase 1C (Homo sapiens, UniProt Q14123); assay: Inhibition of PDE1C (147-531) (unknown origin) expressed in Escherichia coli BL21 assessed as using [3H]-cAMP as substrate measured for 15 mins by liquid scintillation counting analysis
Sequence of Dual specificity calcium/calmodulin-dependent 3',5'-cyclic nucleotide phosphodiesterase 1C (Q14123 whole entry): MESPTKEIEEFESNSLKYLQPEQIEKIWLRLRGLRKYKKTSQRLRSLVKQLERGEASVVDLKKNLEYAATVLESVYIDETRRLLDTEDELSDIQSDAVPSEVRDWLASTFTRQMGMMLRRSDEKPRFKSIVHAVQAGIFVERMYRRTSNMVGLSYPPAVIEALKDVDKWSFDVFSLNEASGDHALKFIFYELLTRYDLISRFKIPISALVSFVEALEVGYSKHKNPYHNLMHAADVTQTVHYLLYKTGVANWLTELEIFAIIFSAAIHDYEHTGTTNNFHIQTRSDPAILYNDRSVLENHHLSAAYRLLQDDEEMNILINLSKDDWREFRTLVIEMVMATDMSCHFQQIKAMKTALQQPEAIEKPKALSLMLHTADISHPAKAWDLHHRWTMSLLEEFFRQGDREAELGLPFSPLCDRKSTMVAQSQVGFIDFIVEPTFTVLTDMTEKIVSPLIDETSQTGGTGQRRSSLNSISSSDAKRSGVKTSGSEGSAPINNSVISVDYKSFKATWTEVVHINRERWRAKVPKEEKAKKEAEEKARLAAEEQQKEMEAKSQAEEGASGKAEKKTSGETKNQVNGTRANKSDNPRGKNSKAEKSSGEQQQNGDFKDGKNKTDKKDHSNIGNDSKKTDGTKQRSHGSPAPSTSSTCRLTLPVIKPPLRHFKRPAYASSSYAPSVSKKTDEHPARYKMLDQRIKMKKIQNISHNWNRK

Rattus norvegicus [24] = assay: Anti-idiopathic pulmonary fibrotic activity in bleomycin-induced Sprague-Dawley rat model assessed as reversal of mid-expiratory flow at 10 mg/kg, po treated for 28 consecutive days relative to control; type: functional, organism-based
Rattus norvegicus [25] = assay: Anti-idiopathic pulmonary fibrotic activity in bleomycin-induced Sprague-Dawley rat model assessed as decrease in fibronectin expression of lungs at 10 mg/kg, po treated for 28 consecutive days by Western blot analysis; type: functional, organism-based
A549 [26] = assay: Anti-idiopathic pulmonary fibrotic activity in human A549 cells assessed as reduction in TGF-beta-induced N-cadherin expression measured after 48 hrs by Western blot analysis; type: functional, cell-based; conditions: dose 10-20 µM
Rattus norvegicus [27] = assay: Anti-idiopathic pulmonary fibrotic activity in bleomycin-induced Sprague-Dawley rat model assessed as decrease in alpha-smooth muscle actin protein expression of lungs at 10 mg/kg, po treated for 28 consecutive days by Western blot analysis; type: functional, organism-based
[28] = biological target: cGMP-inhibited 3',5'-cyclic phosphodiesterase 3A (Homo sapiens, UniProt Q14432); assay: Inhibition of PDE3A (679-1087) (unknown origin) expressed in Escherichia coli BL21 assessed as using [3H]-cAMP as substrate measured for 15 mins by liquid scintillation counting analysis
Sequence of cGMP-inhibited 3',5'-cyclic phosphodiesterase 3A (Q14432 whole entry): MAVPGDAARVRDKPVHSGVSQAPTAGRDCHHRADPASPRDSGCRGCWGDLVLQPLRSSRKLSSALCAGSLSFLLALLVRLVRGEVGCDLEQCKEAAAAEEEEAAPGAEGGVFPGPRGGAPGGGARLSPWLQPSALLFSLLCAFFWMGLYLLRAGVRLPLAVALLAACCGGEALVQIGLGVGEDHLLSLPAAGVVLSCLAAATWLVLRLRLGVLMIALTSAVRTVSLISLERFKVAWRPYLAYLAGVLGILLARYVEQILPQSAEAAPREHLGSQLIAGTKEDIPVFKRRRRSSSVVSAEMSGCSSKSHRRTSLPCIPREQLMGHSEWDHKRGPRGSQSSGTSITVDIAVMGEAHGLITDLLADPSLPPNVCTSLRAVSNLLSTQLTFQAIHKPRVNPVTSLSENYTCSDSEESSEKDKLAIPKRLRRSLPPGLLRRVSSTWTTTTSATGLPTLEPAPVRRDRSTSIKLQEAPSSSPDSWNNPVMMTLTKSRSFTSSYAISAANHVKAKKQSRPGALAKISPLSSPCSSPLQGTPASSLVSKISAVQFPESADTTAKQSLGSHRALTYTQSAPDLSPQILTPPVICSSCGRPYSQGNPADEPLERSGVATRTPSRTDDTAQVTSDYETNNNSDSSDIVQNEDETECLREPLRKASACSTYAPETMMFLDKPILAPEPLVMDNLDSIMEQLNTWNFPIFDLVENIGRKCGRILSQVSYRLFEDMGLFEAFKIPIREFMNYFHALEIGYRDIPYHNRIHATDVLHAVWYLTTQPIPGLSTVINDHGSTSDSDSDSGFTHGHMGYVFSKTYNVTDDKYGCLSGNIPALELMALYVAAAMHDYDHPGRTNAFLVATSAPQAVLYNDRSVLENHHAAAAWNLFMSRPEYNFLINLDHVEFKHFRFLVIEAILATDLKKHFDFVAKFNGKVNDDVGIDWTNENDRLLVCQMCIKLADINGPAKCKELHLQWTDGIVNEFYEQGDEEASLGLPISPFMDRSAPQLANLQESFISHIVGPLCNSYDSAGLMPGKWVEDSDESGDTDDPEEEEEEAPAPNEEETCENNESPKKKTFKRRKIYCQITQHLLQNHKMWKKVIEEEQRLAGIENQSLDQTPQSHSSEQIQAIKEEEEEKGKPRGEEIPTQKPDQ

[29] = Tmax in Sprague-Dawley rat at 10 mg/kg, po; type: ADME, organism-based; conditions: in vivo

COc1c(OCc2ccc(F)cc2)cc2oc3cc4c(c(OC/C=C/C(=O)O)c3c(=O)c2c1CC=C(C)C)C=CC(C)(C)O4
pIC50 [1]: 7.82
pIC50 [2]: 6.15
pIC50 [3]: < 4.40
AUC(0-t) [4]: 8420 ng·h/mL
pIC50 [5]: < 5.00
half-life [6]: 12.2 h
Activity (A549 [7]): Dose-Dependent Effect
solubility [8]: 1.1 µg/mL (≈ 1.83 µM)
half-life [9]: 1.55 h
pIC50 (Cytochrome P450 2C9): 5.77
Activity (Rattus norvegicus [10]): Active
Activity (Rattus norvegicus [11]): Active
AUC(0-t) [12]: 2090 ng·h/mL
pIC50 (Cytochrome P450 1A2): < 4.60
Activity (A549 [13]): Dose-Dependent Effect
pIC50 (Cytochrome P450 2D6): < 4.60
Cmax [14]: 3850 ng/mL
Activity (Rattus norvegicus [15]): Active
pIC50 [16]: 6.85
pIC50 (Cytochrome P450 3A4): < 4.60
Activity (Rattus norvegicus [17]): Active
AUC(0-inf) [18]: 8460 ng·h/mL
pIC50 [19]: 7.03
Activity [20]: Non-Toxic
Cmax [21]: 1070 ng/mL
Activity [22]: Non-Toxic
pIC50 [23]: 6.36
Activity (Rattus norvegicus [24]): Active
Activity (Rattus norvegicus [25]): Active
Activity (A549 [26]): Dose-Dependent Effect
Activity (Rattus norvegicus [27]): Active
pIC50 [28]: < 5.00
Tmax [29]: 1 h
